Reference: patent EP4477653A1 (Perha Pharmaceuticals, priority 2023, dated 2024)

target: T1, human recombinant A3AR (expressed in HEK-293 cells) (Homo sapiens, UniProt P0DMS8); assay: Adenosine receptors antagonism assay (Eurofins), [125I]-AB-MECA radioligand competition; format: binding; conditions: [125I]-AB-MECA 0.15 nM, r.t., 120 min; IC50 from dose-response curves; read-out: Potency Class A3AR
T1 construct: host or cells: HEK-293 cells
T1 sequence (P0DMS8 1-318): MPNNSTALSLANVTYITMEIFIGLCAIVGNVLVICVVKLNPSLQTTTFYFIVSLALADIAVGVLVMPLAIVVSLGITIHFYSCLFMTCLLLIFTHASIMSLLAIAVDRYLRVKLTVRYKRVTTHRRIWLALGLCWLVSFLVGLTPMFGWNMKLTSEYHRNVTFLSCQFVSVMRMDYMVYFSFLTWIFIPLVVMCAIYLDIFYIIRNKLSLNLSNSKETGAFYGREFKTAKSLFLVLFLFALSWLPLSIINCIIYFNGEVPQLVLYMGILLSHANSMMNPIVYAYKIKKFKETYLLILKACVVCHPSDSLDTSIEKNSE
Experimental: Assays were carried out at r.t. for 120 min. Compounds were initially tested at three concentrations (0.01, 0.1, 1 µM). […] IC50 values, which is the concentration causing a half-maximal inhibition of control specific binding, and Hill coefficients (nH) were determined by non-linear regression analysis of the competition curves generated with mean replicate values using Hill equation curve fitting. The inhibition constants (Ki) were calculated using the Cheng Prusoff equation.

Structure (SMILES) | IC50 [nM]
CC(C)c1nnc2c(NCc3ccccc3)cc(N[C@H](CO)[C@@H](C)O)nn12 (stereo in doubt) [compound 5, (2R,3R)-2-[[8-(benzylamino)-3-isopropyl-[1,2,4]triazolo[4,3-b]pyridazin-6-yl]amino]butane-1,3-diol] | 100 to 1000
CC[C@H](CO)Nc1cc(NCc2ccccc2)c2nnc(C(C)C)n2n1 [compound 1, (2R)-2-[[8-(benzylamino)-3-isopropyl-[1,2,4]triazolo[4,3-b]pyridazin-6-yl]amino]butan-1-ol] | 10 to 100
CC[C@@H](CO)Nc1cc(NCc2ccccc2)c2nnc(C(C)C)n2n1 [compound 2, (2S)-2-[[8-(benzylamino)-3-isopropyl-[1,2,4]triazolo[4,3-b]pyridazin-6-yl]amino]butan-1-ol] | 10 to 100
CC(C)c1nnc2c(NCc3ccccc3)cc(NC(CO)CO)nn12 [compound 3, 2-[[8-(benzylamino)-3-isopropyl-[1,2,4]triazolo[4,3-b]pyridazin-6-yl]amino]propane-1,3-diol] | 100 to 1000
CC(C)c1nnc2c(NCc3ccccc3)cc(N3CCOCC3)nn12 [compound 6, N-benzyl-3-isopropyl-6-morpholino-[1,2,4]triazolo[4,3-b]pyridazin-8-amine] | 100 to 1000
CC(C)c1nnc2c(NCc3ccccc3)cc(NCCOCCOCCN)nn12 [compound 8, N6-[2-[2-(2-aminoethoxy)ethoxy]ethyl]-N8-benzyl-3-isopropyl-[1,2,4]triazolo[4,3-b]pyridazine-6,8-diamine] | 100 to 1000
CC(C)c1nnc2c(NCc3ccccc3)cc(NCCCO)nn12 [compound 9, 3-[[8-(benzylamino)-3-isopropyl-[1,2,4]triazolo[4,3-b]pyridazin-6-yl]amino]propan-1-ol] | 100 to 1000
COCCCNc1cc(NCc2ccccc2)c2nnc(C(C)C)n2n1 [compound 10, N8-benzyl-3-isopropyl-N6-(3-methoxypropyl)-[1,2,4]triazolo[4,3-b]pyridazine-6,8-diamine] | 10 to 100
CC(C)c1nnc2c(NCc3ccccc3)cc(NCCO)nn12 [compound 11, 2-[[8-(benzylamino)-3-isopropyl-[1,2,4]triazolo[4,3-b]pyridazin-6-yl]amino]ethanol] | 100 to 1000
COCCNc1cc(NCc2ccccc2)c2nnc(C(C)C)n2n1 [compound 12, N8-benzyl-3-isopropyl-N6-(2-methoxyethyl)-[1,2,4]triazolo[4,3-b]pyridazine-6,8-diamine] | 100 to 1000
CC(C)c1nnc2c(NCc3ccccc3)cc(NCCCCO)nn12 [compound 13, 4-[[8-(benzylamino)-3-isopropyl-[1,2,4]triazolo[4,3-b]pyridazin-6-yl]amino]butan-1-ol] | 10 to 100
COCCCCNc1cc(NCc2ccccc2)c2nnc(C(C)C)n2n1 [compound 14, N8-benzyl-3-isopropyl-N6-(4-methoxybutyl)-[1,2,4]triazolo[4,3-b]pyridazine-6,8-diamine] | 10 to 100
CC(C)c1nnc2c(NCc3ccccc3)cc(NCCCCCO)nn12 [compound 15, 5-[[8-(benzylamino)-3-isopropyl-[1,2,4]triazolo[4,3-b]pyridazin-6-yl]amino]pentan-1-ol] | 100 to 1000
COCCCCCNc1cc(NCc2ccccc2)c2nnc(C(C)C)n2n1 [compound 16, N8-benzyl-3-isopropyl-N6-(5-methoxypentyl)-[1,2,4]triazolo[4,3-b]pyridazine-6,8-diamine] | 100 to 1000
CCC(CC)Nc1cc(NCc2ccccc2)c2nnc(C(C)C)n2n1 [compound 18, N8-benzyl-N6-(1-ethylpropyl)-3-isopropyl-[1,2,4]triazolo[4,3-b]pyridazine-6,8-diamine] | 1 to 10
CC(C)c1nnc2c(NCc3ccccc3)cc(N[C@@H]3CCOC3)nn12 [compound 19, N8-benzyl-3-isopropyl-N6-[(3R)-tetrahydrofuran-3-yl]-[1,2,4]triazolo[4,3-b]pyridazine-6,8-diamine] | 10 to 100
CC(C)c1nnc2c(NCc3ccccc3)cc(N[C@@H]3CCCOC3)nn12 [compound 21, N8-benzyl-3-isopropyl-N6-[(3R)-tetrahydropyran-3-yl]-[1,2,4]triazolo[4,3-b]pyridazine-6,8-diamine] | 10 to 100
CC(C)c1nnc2c(NCc3ccccc3)cc(N[C@H]3CCCOC3)nn12 [compound 22, N8-benzyl-3-isopropyl-N6-[(3S)-tetrahydropyran-3-yl]-[1,2,4]triazolo[4,3-b]pyridazine-6,8-diamine] | 10 to 100

Now from value to molecule:

IC50 [nM] | Structure (SMILES)
10 to 100 | CCC(CC)Nc1cc(NC2CCc3ccccc32)c2nnc(C(C)C)n2n1 (racemic) [compound 81, N6-(1-ethylpropyl)-N8-indan-1-yl-3-isopropyl-[1,2,4]triazolo[4,3-b]pyridazine-6,8-diamine]
1 to 10 | CCC(C)Nc1cc(NCc2ccccn2)c2nnc(C3CC3)n2n1 (racemic) [compound 193, N6-(sec-butyl)-3-cyclopropyl-N8-(pyridin-2-ylmethyl)-[1,2,4]triazolo[4,3-b]pyridazine-6,8-diamine]
10 to 100 | CC(C)c1nnc2c(NCc3ccccc3)cc(NC3CCOCC3)nn12 [compound 23, N8-benzyl-3-isopropyl-N6-tetrahydropyran-4-yl-[1,2,4]triazolo[4,3-b]pyridazine-6,8-diamine]
100 to 1000 | CC(=O)NCCCNc1cc(NCc2ccccc2)c2nnc(C(C)C)n2n1 [compound 24, N-[3-[[8-(benzylamino)-3-isopropyl-[1,2,4]triazolo[4,3-b]pyridazin-6-yl]amino]propyl]acetamide]
100 to 1000 | CC(C)c1nnc2c(NCc3ccccc3)cc(NCCC(N)=O)nn12 [compound 25, 3-[[8-(benzylamino)-3-isopropyl-[1,2,4]triazolo[4,3-b]pyridazin-6-yl]amino]propanamide]
10 to 100 | CNC(=O)CCNc1cc(NCc2ccccc2)c2nnc(C(C)C)n2n1 [compound 26, 3-[[8-(benzylamino)-3-isopropyl-[1,2,4]triazolo[4,3-b]pyridazin-6-yl]amino]-N-methyl-propanamide]
100 to 1000 | CC(C)c1nnc2c(NCc3ccccc3)cc(NCCC(=O)N(C)C)nn12 [compound 27, 3-[[8-(benzylamino)-3-isopropyl-[1,2,4]triazolo[4,3-b]pyridazin-6-yl]amino]-N,N-dimethyl-propanamide]
10 to 100 | COC(=O)CCNc1cc(NCc2ccccc2)c2nnc(C(C)C)n2n1 [compound 28, methyl 3-[[8-(benzylamino)-3-isopropyl-[1,2,4]triazolo[4,3-b]pyridazin-6-yl]amino]propanoate]
10 to 100 | CCOC(=O)CCNc1cc(NCc2ccccc2)c2nnc(C(C)C)n2n1 [compound 29, ethyl 3-[[8-(benzylamino)-3-isopropyl-[1,2,4]triazolo[4,3-b]pyridazin-6-yl]amino]propanoate]
100 to 1000 | CC[C@H](CO)Nc1cc(NCc2ccccc2)c2nnc(C3CC3)n2n1 [compound 30, (2R)-2-[[8-(benzylamino)-3-cyclopropyl-[1,2,4]triazolo[4,3-b]pyridazin-6-yl]amino]butan-1-ol]
10 to 100 | COCCCNc1cc(NCc2ccccc2)c2nnc(C3CC3)n2n1 [compound 31, N8-benzyl-3-cyclopropyl-N6-(3-methoxypropyl)-[1,2,4]triazolo[4,3-b]pyridazine-6,8-diamine]
100 to 1000 | COCCCNc1cc(NCc2ccccc2)c2nnc(C)n2n1 [compound 32, N8-benzyl-N6-(3-methoxypropyl)-3-methyl-[1,2,4]triazolo[4,3-b]pyridazine-6,8-diamine]
100 to 1000 | COCCCNc1cc(NCc2ccccc2)c2nnc(-c3ccccc3)n2n1 [compound 34, N8-benzyl-N6-(3-methoxypropyl)-3-phenyl-[1,2,4]triazolo[4,3-b]pyridazine-6,8-diamine]
10 to 100 | CC[C@H](CO)Nc1cc(NCc2ccccc2)c2nnc(-c3ccccc3)n2n1 [compound 35, (2R)-2-[[8-(benzylamino)-3-phenyl-[1,2,4]triazolo[4,3-b]pyridazin-6-yl]amino]butan-1-ol]
10 to 100 | COCCCNc1cc(NCc2ccccc2)c2nnc(C(F)(F)F)n2n1 [compound 36, N8-benzyl-N6-(3-methoxypropyl)-3-(trifluoromethyl)-[1,2,4]triazolo[4,3-b]pyridazine-6,8-diamine]
10 to 100 | CC[C@H](CO)Nc1cc(NCc2ccccc2)c2nnc(C(F)(F)F)n2n1 [compound 37, (2R)-2-[[8-(benzylamino)-3-(trifluoromethyl)-[1,2,4]triazolo[4,3-b]pyridazin-6-yl]amino]butan-1-ol]
1 to 10 | CC[C@H](CO)Nc1cc(NCc2ccccc2O)c2nnc(C(C)C)n2n1 [compound 38, 2-[[[6-[[(1R)-1-(hydroxymethyl)propyl]amino]-3-isopropyl-[1,2,4]triazolo[4,3-b]pyridazin-8-yl]amino]methyl]phenol]
10 to 100 | COCCCNc1cc(NCc2ccccc2O)c2nnc(C(C)C)n2n1 [compound 39, 2-[[[3-isopropyl-6-(3-methoxypropylamino)-[1,2,4]triazolo[4,3-b]pyridazin-8-yl]amino]methyl]phenol]
1 to 10 | CCC(CC)Nc1cc(NCc2ccccc2O)c2nnc(C(C)C)n2n1 [compound 40, 2-[[[6-(1-ethylpropylamino)-3-isopropyl-[1,2,4]triazolo[4,3-b]pyridazin-8-yl]amino]methyl]phenol]
1 to 10 | CCC(CC)Nc1cc(NCc2cccc(O)c2)c2nnc(C(C)C)n2n1 [compound 41, 3-[[[6-(1-ethylpropylamino)-3-isopropyl-[1,2,4]triazolo[4,3-b]pyridazin-8-yl]amino]methyl]phenol]
